Laboratory results taken from patent US20260125374A1, “PI3K-ALPHA INHIBITORS AND METHODS OF MAKING AND USING THE SAME” (Relay Therapeutics, Inc., priority 2021, published 2026).
Marks after values point to notes of the source that are not given here.

Assay: Polymorph screening (equilibration, anti-solvent, slow evaporation, slow cooling, temperature cycling, heating-cooling; XRPD and SFC)
Assay type: physicochemical
Method: This polymorph screening program of compound I-1 free form was performed with two batches of the pure enantiomer. Both batches are crystalline and is assigned as Form A. The polymorphic behaviors of the enantiomer were investigated by equilibration at 25° C. and 50° C., equilibration under a temperature cycle, crystallization from hot saturated solutions by slow cooling, slow evaporation, precipitation by addition of anti-solvent, and DSC heating-cooling cycle experiments. Relative stability of identified polymorphs was investigated by competitive slurry experiments.
(§1) About 50 mg of I-1 Form A was weighed into a 2 mL glass vial and equilibrated in suitable amount of solvents (pretreated by molecular sieves) at 25° C. for 2 weeks with a stirring plate and with protection from light. Obtained suspensions were filtered with 0.45 μm nylon membrane and the solid parts (wet cake) were investigated by XRPD. When differences were observed, additional investigations were performed (e.g. DSC, TGA, ^1H-NMR, SFC).
as §1, with “into” for “into a”, “vials” for “vial”, “50°” for “25°”, “10 days” for “2 weeks”, “investigation was” for “investigations were”
I-1 Form A was dissolved in a good solvent. […] The solvents used were pretreated by molecular sieve. Precipitates were collected by filtration. The solid part (wet cake) was investigated by XRPD. […] When differences were observed, additional investigations were performed (e.g. DSC, TGA, ^1H-NMR, SFC).
Based on approximate solubility results, I-1 Form A was dissolved in suitable amount of solvents (pretreated by molecular sieves). Obtained solutions were filtered by 0.45 μm nylon filter. […] Solid residues were examined for their polymorphic form. When differences were observed, additional investigations were performed (e.g. DSC, TGA, ^1H-NMR, SFC).
Approximate 50 mg of batch I-1 Form A were dissolved in the minimal amount of selected solvents (without pretreatment by molecular sieves) at 50° C. Obtained solutions were filtered by 0.45 μm nylon filter. […] Precipitates were collected by filtration. The solid parts (wet cake) were investigated by XRPD. When differences were observed, additional investigations were performed (e.g. DSC, TGA, ^1H-NMR, SFC). When no precipitation was obtained or only a few solids were obtained, the solutions were placed at 5° C. for crystallization.
About 50 mg of I-1 Form A was equilibrated in different solvents (pretreated by molecular sieves) under a temperature cycle between 5° C. to 50° C. at a heating/cooling rate of 0.2° C./min for 10 cycles and with protection from light. After 10 cycles, precipitates were collected at 5° C. by filtration. The solid parts (wet cake) were investigated by XRPD. When differences were observed, additional investigations were performed (e.g. DSC, TGA, 1H-NMR, SFC).
Polymorphic behavior of I-1 Form A was investigated by two different heating-cooling cycles of DSC. Cycle 1:30° C. to 280° C. at 10° C./min; 280° C. to −20° C. at 20° C./min; reheat to 300° C. at 10° C./min. Cycle 2:30° C. to 280° C. at 10° C./min; 280° C. to-20° C. at 2° C./min; reheat to 300° C. at 10° C./min.

## N#Cc1c(-c2cc(NC(=O)c3cc(F)cc(C(F)(F)F)c3)c3c(c2)C(=O)N[C@H]3c2cc(F)ccc2Cl)ccc2ncnn12 [Compound I-1, (R)-N-(3-(2-chloro-5-fluorophenyl)-6-(5-cyano-[1,2,4]triazolo[1,5-a]pyridin-6-yl)-1-oxoisoindolin-4-yl)-3-fluoro-5-(trifluoromethyl)benzamide]
Equilibration at 50° C. for 10 days in Ethyl acetate
  XRPD: I-1 Form A
Equilibration at 50° C. for 10 days in Isopropyl acetate
  XRPD: I-1 Form A
Equilibration at 50° C. for 10 days in MeOH/water(55:45, v/v) a.w. 0.7
  XRPD: I-1 Form A
Equilibration at 50° C. for 10 days in Methanol
  XRPD: III-1 Form A
Equilibration at 50° C. for 10 days in Methanol, SFC immediately after preparation
  ee %(SFC): ee % (SFC): 48.4%*
Equilibration at 50° C. for 10 days in Methyl ethyl ketone
  XRPD: I-1 Form A
Equilibration at 50° C. for 10 days in THF/water(85:15, v/v) a.w. 0.9
  XRPD: I-1 Form A
Equilibration at 50° C. for 10 days in Water
  XRPD: I-1 Form A
Equilibration at 50° C. for 10 days in t-Butyl methyl ether
  XRPD: I-1 Form A
Equilibration at 50° C. in 1,4-Dioxane, added I-1 Form B seeds and stirred for 4 days
  ee %(SFC): ee %(SFC): 80.1%*
Equilibration at 50° C. in 1,4-Dioxane, with molecular sieve and stirred for 6 days
  ee %(SFC): ee %(SFC): 88.26%*
Equilibration at 50° C. in 1,4-Dioxane, without molecular sieve and stirred for 6 days
  ee %(SFC): ee %(SFC): 81.26%*
Equilibration at 50° C. in THF, added I-1 Form B seeds and stirred for 4 days
  ee %(SFC): ee %(SFC): 82.5%*
Equilibration in ACN/water(80:20, v/v), 25° C., pH 7.27, III-1 Form A seeds, 3 days
  ee %(SFC): ee %(SFC): 90.9%*
Equilibration in ACN/water(80:20, v/v), 25° C., pH 7.27, III-1 Form A seeds, 8 days
  ee %(SFC): ee %(SFC): 89.3%*
Equilibration in ACN/water(80:20, v/v), 50° C., pH 4.48, 3 days
  ee %(SFC): ee %(SFC): 89.6%*
Equilibration in ACN/water(80:20, v/v), 50° C., pH 4.48, 5 days
  ee %(SFC): ee %(SFC): 88.9%*
Equilibration in ACN/water(80:20, v/v), 50° C., pH 6.79, 3 days
  ee %(SFC): ee %(SFC): 67.4%*
Equilibration in EtOH/water(50:50, v/v), 50° C., pH 6.82, 3 days
  ee %(SFC): ee %(SFC): 91.6%*
Equilibration in Methanol, 50° C., pH 6.21, 3 days
  ee %(SFC): ee %(SFC): 87.9%*
Slow cooling 50° C. to 5° C. from 1,4-Dioxane, SFC immediately after preparation
  ee %(SFC): ee %(SFC): −0.2%*
Slow cooling 50° C. to 5° C. from ACN
  Comments (outcome): clear solution
Slow cooling 50° C. to 5° C. from Acetone
  Comments (outcome): clear solution
Slow cooling 50° C. to 5° C. from Benzyl alcohol
  Comments (outcome): clear solution
Slow cooling 50° C. to 5° C. from MEK
  Comments (outcome): clear solution
Slow cooling 50° C. to 5° C. from MeOH
  Comments (outcome): clear solution
Slow cooling 50° C. to 5° C. from THF
  Comments (outcome): clear solution
Slow evaporation at room temperature from 1,4-Dioxane
  XRPD: Amorphous form
Slow evaporation at room temperature from ACN
  XRPD: Amorphous form
Slow evaporation at room temperature from Acetone
  XRPD: Amorphous form
Slow evaporation at room temperature from MeOH
  XRPD: III-1D
Slow evaporation at room temperature from THF
  XRPD: Amorphous form
Slow evaporation from MeOH (not pretreated by molecular sieves) at 25° C. for 12 days
  ee %(SFC): ee %(SFC): 98.0%*
Slow evaporation from MeOH/DCM(1:1, v/v), added I-1 Form D seeds
  ee %(SFC): ee %(SFC): 88.9%*
Slow evaporation from MeOH, SFC immediately after preparation
  ee %(SFC): ee % (SFC): 68.6%*
Temperature cycling 5° C. to 50° C. in 1,4-Dioxane, target concentration: 250 mg/mL
  Comments (outcome): Clear solution, target concentration: 250 mg/mL
Temperature cycling 5° C. to 50° C. in THF/water(85:15, v/v) a.w. 0.9, target concentration: 250 mg/mL
  Comments (outcome): Clear solution, target concentration: 250 mg/mL
Temperature cycling 5° C. to 50° C. in Tetrahydrofuran, target concentration: 250 mg/mL
  Comments (outcome): Clear solution, target concentration: 250 mg/mL
Temperature cycling 5° C. to 50° C., 10 cycles, in 2-MeTHF
  XRPD: I-1 Form A
Temperature cycling 5° C. to 50° C., 10 cycles, in ACN/water(80:20, v/v) a.w. 0.9
  XRPD: I-1 Form A
Temperature cycling 5° C. to 50° C., 10 cycles, in Acetone
  XRPD: I-1 Form A
Temperature cycling 5° C. to 50° C., 10 cycles, in Acetone/water(60:40, v/v) a.w. 0.8
  XRPD: I-1 Form A
Temperature cycling 5° C. to 50° C., 10 cycles, in Acetonitrile
  XRPD: I-1 Form A
Temperature cycling 5° C. to 50° C., 10 cycles, in Benzyl alcohol
  XRPD: I-1 Form A
Temperature cycling 5° C. to 50° C., 10 cycles, in EtOH/water(50:50, v/v) a.w. 0.9
  XRPD: I-1 Form A
Temperature cycling 5° C. to 50° C., 10 cycles, in Ethanol
  XRPD: I-1 Form A
Temperature cycling 5° C. to 50° C., 10 cycles, in Ethyl acetate
  XRPD: I-1 Form A
Temperature cycling 5° C. to 50° C., 10 cycles, in MeOH/water(55:45, v/v) a.w. 0.7
  XRPD: I-1 Form A
Temperature cycling 5° C. to 50° C., 10 cycles, in MeOH/water(55:45, v/v), SFC immediately after preparation
  ee %(SFC): ee %(SFC): 100.0%*
Temperature cycling 5° C. to 50° C., 10 cycles, in Methanol, SFC immediately after preparation
  ee %(SFC): ee %(SFC): 89.4%*
Temperature cycling 5° C. to 50° C., 10 cycles, in Methyl ethyl ketone
  XRPD: I-1 Form A
